In US20140349989A1, “COMPOUNDS AND THERAPEUTIC USES THEREOF” (Alzheimer's Institute of America, priority 2011, published 2014):
pIC50: −log10 of the molar value. Where two headings read alike, the source gives them in different places.

Assays:
Human NAMPT = target: T1, Human NAMPT (Homo sapiens, UniProt P43490); assay: Nampt Activity Assay (coupled enzyme fluorometric, resazurin/diaphorase); type: biochemical; details: His-tagged human NAMPT, 3 μM NAM, 8 μM PRPP, room temperature up to 3 hours; read-out: in vitro IC50 (Nampt catalytic activity)
T1 construct: 6xHis (N); made in house; host or cells: E. coli BL21-AI
T1 sequence (P43490 whole entry): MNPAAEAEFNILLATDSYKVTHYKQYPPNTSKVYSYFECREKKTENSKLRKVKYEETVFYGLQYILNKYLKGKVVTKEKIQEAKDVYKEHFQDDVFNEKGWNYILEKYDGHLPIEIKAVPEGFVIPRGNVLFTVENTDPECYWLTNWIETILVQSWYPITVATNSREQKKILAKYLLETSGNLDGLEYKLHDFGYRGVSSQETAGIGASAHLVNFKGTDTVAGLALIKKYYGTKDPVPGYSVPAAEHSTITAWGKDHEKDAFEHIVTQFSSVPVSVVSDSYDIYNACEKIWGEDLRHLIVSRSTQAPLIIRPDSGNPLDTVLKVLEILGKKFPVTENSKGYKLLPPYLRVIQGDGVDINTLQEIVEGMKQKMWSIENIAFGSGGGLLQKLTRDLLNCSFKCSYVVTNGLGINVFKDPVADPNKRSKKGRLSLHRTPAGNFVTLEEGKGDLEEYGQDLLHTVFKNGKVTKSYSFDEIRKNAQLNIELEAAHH
Text: 5-phosphoribosyl-1-pyrophosphate (PRPP), ATP, NaM, NaMN, Triton X-100, UDP-glucose and diaphorase were purchased from Sigma-Aldrich, St. Louis, Mo. Human NAMPT, NMN adenylyltransferase (NMNAT1) and UDP-glucose dehydrogenase (UGDH) encoding DNAs were each inserted into a house-modified E. Coli expression vector such that the expressed proteins carried an N-terminal 6×His tag. The His-tagged proteins were expressed in the BL21-AI E. Coli expression strain (Invitrogen Corporation, Carlsbad, Calif.) following induction by 0.2% L-arabinose and 0.5 mM IPTG at 30° C. Proteins were purified on Ni-NTA resin (Qiagen, Germantown, Md.).
The assay for Nampt catalytic activity was constructed based on a previously published coupled enzyme fluorometric technique, which employs NADH as ultimate analyte (Revollo, J. R. et al. Biol. Chem. 279, 50754-50763 (2004)). A substantial improvement in assay sensitivity was achieved by switching from direct detection to a resazurin/diaphorase-based fluorometric detection system for NADH (Guilbault, G. G., and Kramer, D. N. Anal. Chem. 37, 1219-1221 (1965)). The standard inhibition analyses were performed in a real-time mode in 96-well microtiter plates using 50 mM Tris-HCl, pH 7.5, 1% DMSO (v/v), 0.01% Triton X-100 (v/v), 10 mM MgCl2, 2 mM ATP, 3 μM NAM, 8 μM PRPP, […], as well as the following detection reagents: 5 nM Nmnat, 200 nM Ugdh, 200 μM UDP-glucose, 0.02 U/mL diaphorase and 0.25 μM resazurin. Incubation of samples at room temperature for up to 3 hours was followed by quantification of fluorescence intensities at excitation and emission wavelengths of 510 nm and 590 nm, respectively, using Gemini XS plate reader (Molecular Devices, Sunnyvale, Calif.). The counter-assay intended to disqualify false positives, such as inhibitors of detection enzymes or fluorescence quenchers, was carried out essentially as described above with an exception that 1 μM NaMN was substituted for Nampt.

[1] = Cytotoxicity Assay (HCT116, CellTiter-Glo); type: cell-based; details: human
Method in brief: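 Cells settled overnight, then exposed to compound in DMSO for 72 h, optionally with nicotinic acid (10 μM final) added alongside. Viability read as CellTiter-Glo luminescence.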

[2] = HCT116 cells, 72 hours drug incubation, CellTiter-Glo luminescence, read-out: HCT116 cell cytotoxicity IC50

SMILES	pIC50 (Human NAMPT)	IC50 at 72 h ([1]; HCT116 cell cytotoxicity IC50)	IC50 at 72 h [1, 2]
O=C(NCc1cccnc1)Nc1ccc(-n2ccc(C(=O)NCCN3CCCC3)n2)cc1 [Compound 1, 1-(4-{[(Pyridin-3-ylmethyl)carbamoyl]amino}phenyl)-N-[2-(pyrrolidin-1-yl)ethyl]-1H-pyrazole-3-carboxamide]	~8.00		
O=C(NCc1cccnc1)Nc1ccc(-n2cc(C(=O)NCCCN3CCCC3)c3ccccc32)cc1 [Compound 4]	~9.00	~8 nM	
O=C(NCc1cccnc1)Nc1ccc(-n2nc(C(=O)NCCN3CCCC3)c3ccccc32)cc1 [Compound 6, 1-(4-{[(Pyridin-3-ylmethyl)carbamoyl]amino}phenyl)-N-[2-(pyrrolidin-1-yl)ethyl]-1H-indazole-3-carboxamide]	~8.70	~18 nM	
O=C(NCc1cccnc1)Nc1ccc(-n2cc(C(=O)N3CC(N4CCNCC4)C3)c3ccccc32)cc1 [Compound 15, 1-[4-(3-{[3-(Piperazin-1-yl)azetidin-1-yl]carbonyl}-1H-indol-1-yl)phenyl]-3-(pyridin-3-ylmethyl)urea]	~9.00	~60 nM	
O=C(NCc1cccnc1)Nc1ccc(-n2cc(C(=O)N3CCC(N4CCOCC4)CC3)c3cccnc32)cc1 [Compound 27, 1-[4-[3-(4-morpholinopiperidine-1-carbonyl)pyrrolo[2,3-b]pyridin-1-yl]phenyl]-3-(3-pyridylmethyl)urea]	~9.00	~4 nM	
O=C(NCc1cccnc1)Nc1ccc(-n2cc(C3CCNCC3)c3ccccc32)cc1 [Compound 29, 1-[4-[3-(4-piperidyl)indol-1-yl]phenyl]-3-(3-pyridylmethyl)urea]	~9.00		
O=C(NCc1cccnc1)Nc1ccc(-c2nn(C3CN(C4CCCC4)C3)c3ccccc23)cc1 [Compound 33, 1-{4-[1-(1-Cyclopentyl-azetidin-3-yl)-1H-indazol-3-yl]phenyl}-3-(pyridin-3-ylmethyl)urea]	> 9.00	~1 nM	< 100 nM
CC(C(=O)N(C)C)N1CCC2(CC1)CN(c1ccc(NC(=O)NCc3cccnc3)cc1)c1ccccc12 (stereo not shown) [Compound 47, N,N-Dimethyl-2-[1-(4-{[(pyridin-3-ylmethyl)carbamoyl]ami-no}phenyl)-1,2-dihydro-1′H-spiro[indole-3,4′-piperidin]-1′-yl]propanamide]	> 9.00	< 1 nM	< 100 nM
CC(C)N1CCC2(CC1)CN(c1ccc(NC(=O)NCc3cccnc3)cc1)c1ccccc12 [Compound 61, 1-{4-[1′-(Propan-2-yl)spiro[indole-3,4′-piperidin]-1(2H)-yl]phenyl}-3-(pyridin-3-ylmethyl)urea]	> 9.00		
O=C(NCc1cccnc1)Nc1ccc(-n2cc(CCN3CCCC3)c3ccccc32)cc1 [Compound 78, 1-(Pyridin-3-ylmethyl)-3-(4-{3-[2-(pyrrolidin-1-yl)ethyl]-1H-indol-1-yl}phenyl)urea]	~9.00	~1 nM	< 100 nM
O=C(NCc1cccnc1)Nc1ccc(-n2nc(N3CCN(C4CCCC4)CC3)c3ccccc32)cc1 [Compound 109, 1-{4-[3-(4-Cyclopentyl-piperazin-1-yl)-1H-indazol-1-yl]phenyl}-3-(pyridin-3-ylmethyl)urea]	~9.00	~1 nM	< 100 nM
Cc1c(-c2ccccc2)c(C(=O)O)nn1-c1ccc(NC(=O)NCc2cccnc2)cc1 [Compound 119, 5-Methyl-4-phenyl-1-(4-{[(pyridin-3-ylmethyl)carbamoyl]amino}phenyl)-1H-pyrazole-3-carboxylic acid]	~8.70		
O=C(/C=C/c1ccc(-n2nc(C(=O)N3CC(N4CCOCC4)C3)c3ccccc32)cc1)NCc1cccnc1 [Compound 169, (2E)-3-[4-(3-{[3-(Morpholin-4-yl)azetidin-1-yl]carbonyl}-1H-indazol-1-yl)phenyl]-N-(pyridin-3-ylmethyl)prop-2-enamide]	~8.52	~10 nM	< 100 nM
O=C(/C=C/c1ccc(-n2cc(CCN3CCCC3)c3ccccc32)cc1)NCc1cccnc1 [Compound 174, (2E)-N-(Pyridin-3-ylmethyl)-3-(4-{3-[2-(pyrrolidin-1-yl)ethyl]-1H-indol-1-yl}phenyl)prop-2-enamide]			< 100 nM
O=C(/C=C/c1ccc(-n2cc(CCN3CCOCC3)c3ccccc32)cc1)NCc1cccnc1 [Compound 175, (2E)-3-(4-{3-[2-(Morpholin-4-yl)ethyl]-1H-indol-1-yl}phenyl)-N-(pyridin-3-ylmethyl)prop-2-enamide]	~9.00	~7 nM	< 100 nM
O=C(/C=C/c1ccc(-n2nc(C(=O)N3CCC(N4CCCCC4)CC3)c3ccccc32)cc1)NCc1cccnc1 [Compound 177, (2E)-3-{4-[3-(1,4′-Bipiperidin-1′-ylcarbonyl)-1H-indazol-1-yl]phenyl}-N-(pyridin-3-ylmethyl)prop-2-enamide]		< 100 nM	
O=C(/C=C/c1ccc(-n2cc(CCN3CCOCC3)c3ccccc32)nc1)NCc1cccnc1 [Compound 179, (2E)-3-(6-{3-[2-(Morpholin-4-yl)ethyl]-1H-indol-1-yl}pyridin-3-yl)-N-(pyridin-3-ylmethyl)prop-2-enamide]			< 100 nM
O=C(CCc1ccc(-n2cc(CCN3CCOCC3)c3ccccc32)cc1)NCc1cccnc1 [Compound 180, 3-(4-{3-[2-(Morpholin-4-yl)ethyl]-1H-indol-1-yl}phenyl)-N-(pyridin-3-ylmethyl)propanamide]			< 100 nM
O=C(/C=C/c1ccc(-n2cc(CCN3CCCOCC3)c3ccccc32)cc1)NCc1cccnc1 [Compound 181, (2E)-3-(4-{3-[2-(1,4-Oxazepan-4-yl)ethyl]-1H-indol-1-yl}phenyl)-N-(pyridin-3-ylmethyl)prop-2-enamide]			< 100 nM
O=C(/C=C/c1ccc(-n2cc(CCN3CCCCC3)c3ccccc32)cc1)NCc1cccnc1 [Compound 182, (2E)-3-(4-{3-[2-(Piperidin-1-yl)ethyl]-1H-indol-1-yl}phenyl)-N-(pyridin-3-ylmethyl)prop-2-enamide]			< 100 nM
O=C(Cc1ccc(-n2nc(C(=O)N3CCC(N4CCCCC4)CC3)c3ccccc32)cc1)NCc1cccnc1 [Compound 183, 2-{4-[3-(1,4′-Bipiperidin-1′-ylcarbonyl)-1H-indazol-1-yl]phenyl}-N-(pyridin-3-ylmethyl)acetamide]			< 100 nM
